Measurements taken from US20230257390A1, “COMPOUNDS WHICH INHIBIT RNA POLYMERASE AND THEIR USE” (The Johns Hopkins University, priority 2020, published 2023).
Where a name gives a salt, the structure may show the parent alone.

System: RPA194
Experiment: RPA194 immunofluorescence high-content imaging in A375 cells (Pol I inhibition)
Format: cell-based
Conditions: treated for 4 hours, top concentration 10 μM
Method: Cell culture: A375 cells (CRL-1619, ATCC) were grown in DMEM (GIBCO) supplemented with 10% fetal bovine serum (GIBCO) in 5% CO2 at 37° C.
Cell treatment and Imaging: 18 hours post-seeding in cell carrier black 384-well plates (PerkinElmer) at 15 000 cells/well, A375 cells were treated for 4 hours with a positive control or test compounds (9 serial semi-log dilutions, top concentration 10 μM). Upon treatment A375 cells were (i) fixed for 15 min at RT with 4% of paraformaldehyde, (ii) permeabilized for 20 min at RT with 0.1-0.5% of NP-40, (iii) incubated with primary antibodies at 4° C.: anti-RPA194 (1:1000-1:1250 dilution, sc-48385, Santa Cruz Biotechnology) and anti-gH2Ax (1:5000 dilution, 81299, Abcam or 1:4000, JBW302, Millipore) (iv) incubated for 1 h at RT with Hoechst (1:5000 dilution, H3570, ThermoFisher) and secondary antibodies: anti-mouse-AlexaFluor488 (1:2000 dilution, A11001, ThermoFisher) and anti-rabbit-AlexaFluor647 (1:2000 dilution, A21443, ThermoFisher) or goat anti-mouse AlexaFluor-594 (1:1000 dilution). Images were acquired on an Operetta CLS High-Content Analysis System (PerkinElmer) (40× objective; 9 fields/well) and processed using the Columbus Image Analysis System (PerkinElmer) or by using Molecular Devices ImageXpress Micro XLS High Content Imager and MetaXpress high-content acquisition and analysis software.
In the table below, (+) is associated with a pIC50 5.02 to 5.8; (++) with pIC50 5.8 to 6.3; and plus sing (+++) with a pIC50 above 6.3.

Structure (SMILES) | Activity Range (pIC50)
Cc1ccc2c(=O)n3cccc(C(=O)NCCN4CCCC4)c3nc2c1C [Compound 120, 3,4-dimethyl-11-oxo-N-(2-(pyrrolidin-1-yl)ethyl)-11H-pyrido[2,1-b]quinazoline-6-carboxamide; hydrochloride] | +++ ((+++) with a pIC50 above 6.3)
Cc1cccc2c(=O)n3cccc(C(=O)NCCN4CCCC4)c3nc12 [Compound 117, 4-methyl-11-oxo-N-(2-(Pyrrolidin-1-Yl)ethyl)-11H-pyrido[2,1-b]quinazoline-6-carboxamide;hydrochloride] | ++ ((++) with pIC50 5.8 to 6.3)
CN(C)CCNC(=O)c1cccn2c(=O)c3cc4c(cc3nc12)CCCC4 [Compound 111, N-(2-(dimethylamino)ethyl)-12-oxo-7,9,10,12-tetrahydro-8H-benzo[g]pyrido[2,1-b]quinazoline-4-carboxamide; hydrochloride] | + ((+) is associated with a pIC50 5.02 to 5.8)
O=C(NCCN1CCCC1)c1cccn2c(=O)c3cc4c(cc3nc12)OC(F)(F)O4 [Compound 107, 2,2-difluoro-11-oxo-N-(2-(pyrrolidin-1-yl)ethyl)-11H-[1,3]dioxolo[4,5-2]pyrido[2,1-b]quinazoline-6-carboxamide; hydrochloride] | +++ ((+++) with a pIC50 above 6.3)
Cc1cc2nc3c(C(=O)NCCN(C)C)cccn3c(=O)c2cc1C [Compound 109, N-(2-(dimethylamino)ethyl)-2,3-dimethyl-11-oxo-11H-pyrido[2,1-b]quinazoline-6-carboxamide; hydrochloride] | ++ ((++) with pIC50 5.8 to 6.3)
O=C(NCCN1CCCC1)c1cccn2c(=O)c3cc4c(cc3nc12)CCCC4 [Compound 112, 12-oxo-N-(2-(pyrrolidin-1-yl)ethyl)-7,9,10,12-tetrahydro-8H-benzo[g]pyrido[2,1-b]quinazoline-4-carboxamide; hydrochloride] | ++ ((++) with pIC50 5.8 to 6.3)
O=C(NCCN1CCCC1)c1cccn2c(=O)c3cccc(-c4ccccc4)c3nc12 [Compound 118, 11-oxo-4-phenyl-N-(2-(pyrrolidin-1-yl)ethyl)-11H-pyrido[2,1-b]quinazoline-6-carboxamide; hydrochloride] | + ((+) is associated with a pIC50 5.02 to 5.8)
O=C1CCN(CCNC(=O)c2cccn3c(=O)c4cc5c(cc4nc23)OC(F)(F)O5)CC1 [Compound 103, 2,2-difluoro-11-oxo-N-(2-(4-oxopiperidin-1-yl)ethyl)-11H-[1,3]dioxolo[4,5-g]pyrido[2,1-b]quinazoline-6-carboxamide] | ++ ((++) with pIC50 5.8 to 6.3)
Cc1ccc2c(=O)n3cccc(C(=O)NCCN4CCCC4)c3nc2c1 [Compound 116, 3-methyl-11-oxo-N-(2-(pyrrolidin-1-yl)ethyl)-11H-pyrido[2,1-b]quinazoline-6-carboxamide;hydrochloride] | + ((+) is associated with a pIC50 5.02 to 5.8)
O=C(NCCN1CCCC1)c1cccn2c(=O)c3ccc(-c4ccccc4)cc3nc12 [Compound 119, 11-oxo-3-phenyl-N-(2-(pyrrolidin-1-yl)ethyl)-11H-pyrido[2,1-b]quinazoline-6-carboxamide; hydrochloride] | + ((+) is associated with a pIC50 5.02 to 5.8)
CN(C)C(C)(C)CNC(=O)c1cccn2c(=O)c3cc4c(cc3nc12)OC(F)(F)O4 [Compound 106, N-(2-(dimethylamino)-2-methylpropyl)-2,2-difluoro-11-oxo-11H-[1,3]dioxolo[4,5-g]pyrido[2,1-b]quinazoline-6-carboxamide; hydrochloride] | + ((+) is associated with a pIC50 5.02 to 5.8)
Cc1ccc2c(=O)n3cccc(C(=O)NCCN4CC[C@@H](O)C4)c3nc2c1C [Compound 115, (R)-N-(2-(3-hydroxypyrrolidin-1-yl)ethyl)-3,4-dimethyl-11-oxo-11H-pyrido[2,1-b]quinazoline-6-carboxamide; hydrochloride] | +++ ((+++) with a pIC50 above 6.3)
O=C(NCCN1CCCC1)c1cccn2c(=O)c3cc4c(cc3nc12)OCO4 [Compound 108, 11-oxo-N-(2-(pyrrolidin-1-yl)ethyl)-11H-[1,3]dioxolo[4,5-g]pyrido[2,1-b]quinazoline-6-carboxamide; hydrochloride] | ++ ((++) with pIC50 5.8 to 6.3)
O=C(NCCN1CCC(O)C1)c1cccn2c(=O)c3cc4c(cc3nc12)OC(F)(F)O4 (centres unmarked) [Compound 102, 2,2-difluoro-N-(2-(3-hydroxypyrrolidin-1-yl)ethyl)-11-oxo-11H-[1,3]dioxolo[4,5-g]pyrido[2,1-b]quinazoline-6-carboxamide; hydrochloride] | + ((+) is associated with a pIC50 5.02 to 5.8)
CN(C)CCNC(=O)c1cccn2c(=O)c3cc4c(cc3nc12)OC(F)(F)O4 [Compound 104, N-(2-(dimethylamino)ethyl)-2,2-difluoro-11-oxo-11H-[1,3]dioxolo[4,5-g]pyrido[2,1-b]quinazoline-6-carboxamide; hydrochloride] | + ((+) is associated with a pIC50 5.02 to 5.8)
O=C(NCCN1C[C@@H](O)[C@H](O)C1)c1cccn2c(=O)c3cc4c(cc3nc12)OC(F)(F)O4 [Compound 101, N-(2-((3R,4R)-3,4-dihydroxypyrrolidin-1-yl)ethyl)-2,2-difluoro-11-oxo-11H-[1,3]dioxolo[4,5-g]pyrido[2,1-b]quinazoline-6-carboxamide] | + ((+) is associated with a pIC50 5.02 to 5.8)
O=C(NCCN1CCC(O)CC1)c1cccn2c(=O)c3cc4c(cc3nc12)OC(F)(F)O4 [Compound 105, 2,2-difluoro-N-(2-(4-hydroxypiperidin-1-yl)ethyl)-11-oxo-11H-[1,3]dioxolo[4,5-g]pyrido[2,1-b]quinazoline-6-carboxamide; hydrochloride] | ++ ((++) with pIC50 5.8 to 6.3)
O=C(NCCN1CCCC1)c1cccn2c(=O)c3cc4c(cc3nc12)OCCO4 [Compound 113, 12-oxo-N-(2-(pyrrolidin-1-yl)ethyl)-2,3-dihydro-12H-[1,4]dioxino[2,3-2]pyrido[2,1-b]quinazoline-7-carboxamide; hydrochloride] | + ((+) is associated with a pIC50 5.02 to 5.8)
Cc1cc2nc3c(C(=O)NCCN4CCCC4)cccn3c(=O)c2cc1C [Compound 110, 2,3-dimethyl-11-oxo-N-(2-(pyrrolidin-1-yl)ethyl)-11H-pyrido[2,1-b]quinazoline-6-carboxamide; hydrochloride] | ++ ((++) with pIC50 5.8 to 6.3)
O=C(NCCN1CCCC1)c1cccn2c(=O)c3ccc4c(c3nc12)OC(F)(F)O4 [Compound 121, 2,2-difluoro-6-oxo-N-(2-(pyrrolidin-1-yl)ethyl)-6H-[1,3]dioxolo[4,5-h]pyrido[2,1-b]quinazoline-11-carboxamide;hydrochloride] | + ((+) is associated with a pIC50 5.02 to 5.8)
CN(C)CCNC(=O)c1cccn2c(=O)c3cc4c(cc3nc12)OCCO4 [Compound 114, N-(2-(dimethylamino)ethyl)-12-oxo-2,3-dihydro-12H-[1,4]dioxino[2,3-g]pyrido[2,1-b]quinazoline-7-carboxamide; hydrochloride] | + ((+) is associated with a pIC50 5.02 to 5.8)

System: tumor burden
Experiment: not given
Conditions: mouse xenograft assays; cited from earlier work

Structure (SMILES) | tumor burden
CN(C)CCNC(=O)c1cccn2c(=O)c3cc4ccccc4cc3nc12 [BMH-21, 12H-Benzo[g]pyrido[2,1-b]quinazoline-4-carboxamide, N-[2(dimethylamino)ethyl]-12-oxo] | reduced tumor burden

System: NCI60 cancer cell lines
Experiment: not given
Conditions: cited from earlier work

Structure (SMILES) | anticancer activity
CN(C)CCNC(=O)c1cccn2c(=O)c3cc4ccccc4cc3nc12 [BMH-21, 12H-Benzo[g]pyrido[2,1-b]quinazoline-4-carboxamide, N-[2(dimethylamino)ethyl]-12-oxo] | anticancer activity
